Test results published in PubChem BioAssay AID2060503 (Molecular Pharmacology Branch, DTP, NCI, 2025).

Tested on: 817829-284-R-J1-PDC complex spheroids, viability
Assay: Anticancer human tumor 817829-284-R-J1-PDC patient-derived colon adenocarcinoma cell line growth inhibition [GQUAD]
Conditions: for IC50: curve of first compound; for viability, T/C: stronger effect = lower value; active means viability on the fitted dose curve at most 10% of control; inactive means the rest
Source text: DNA G-quadruplex Stabilizer Agents in Combinations in Complex Spheroids
A high-throughput screen of multi-cell type tumor spheroids was designed to identify active combinations of DNA G-quadruplex stabilizer agents and targeted small molecules. Complex spheroids include a stromal component modeled by human endothelial cells (HUVEC) and fibroblasts modeled by human mesenchymal stem cells (MSCs). The concentration ranges selected for each drug and investigational agent were based upon clinically achievable concentrations if the clinical Cmax of the agent was known.
Compounds. The drugs and investigational agents: pidnarulex (CX-5461; NSC782164), APTO-253 (NSC789042), BRACO-19 (NSC847499), peposertib (NSC802822), ceralasertib (NSC780249), elimusertib (NSC800525), camonsertib (NSC841442), AZD-1390 (NSC803789), olaparib (NSC753686), talazoparib (NSC767125), ART-558 (NSC835418), sotorasib (NSC818433), MRTX-1133 (NSC836407), SN-38 (NSC673596), topotecan (NSC609699), etoposide (NSC141540), doxorubicin (NSC123127), gemcitabine (NSC613327), 5-fluorouracil (NSC19893), paclitaxel (NSC125973), vemurafenib (NSC761431), panobinostat (NSC761190), R-306465 (JNJ-16241199; NSC773264), adavosertib (NSC754352), TP-3654 (NSC805149), carboplatin (NSC241240), KSQ-4279 (NSC840948), and staurosporine (NSC755774) were obtained from the National Cancer Institute (NCI) Developmental Therapeutics Program Chemical Repository (34). The FDA-approved anticancer drug set is available from the NCI Developmental Therapeutics Program. […] The stock solutions were prepared in dimethyl sulfoxide (DMSO, Sigma-Aldrich, St. Louis, MO, cat. D2650) at 800-fold the tested concentration and stored at -70 degrees C prior to their use. All drugs and investigational agents were tested over a range starting from a high concentration at or near the clinical Cmax and decreasing in half-log increments. If the clinical Cmax for an agent had not been determined, the highest concentration tested was 10 microM.
2.3 Cell Culture. All cells were maintained in an incubator at 37 degrees C and 5% CO2 with 95% humidity. The PDC lines were cultured according to standard operating procedures established by the NCI PDMR. All PDCs were thawed and cultured in Matrigel-coated flasks prepared with a working solution of 1X Ham's F-12 nutrient mix, without supplementation (Invitrogen, cat. 11765054), 100 U/mL penicillin-streptomycin (Invitrogen, cat. 15140122), and 2.5% Matrigel (Corning Inc., cat. 354248) for the first three passages. The 857933-349-R-J2-PDC line was cultured in 6C/Colon 1B media, which includes advanced DMEM/F-12 (Thermo Fisher Scientific, cat. 12634028), 10 mM HEPES (Thermo Fisher Scientific, cat. 15630080), 1X GlutaMAX supplement (Thermo Fisher Scientific, cat. 35050061), 0.1 mg/mL primocin (InvivoGen, cat. ant-pm-2), 10% defined fetal bovine serum, heat inactivated (HyClone Laboratories Inc., cat. SH30070.03HI), 50% L-WRN conditioned media (ATCC, cat. CRL-3276), 1.25 mM N-Acetyl-L-cysteine (Sigma-Aldrich, cat. A9165), 10 mM nicotinamide (Sigma-Aldrich, cat. N0636), 1X B-27 supplement (Thermo Fisher Scientific, cat. 17504044), 1X N-2 supplement (Thermo Fisher Scientific, cat. 17502048), 10 microM Y-27632 dihydrochloride (Tocris Bioscience, cat. 1254), and 50 ng/mL human EGF recombinant protein (Thermo Fisher Scientific, cat. PHG0311). The 485176-168-R4-J1-PDC line was cultured in Panc media, which includes all 6C/Colon 1B media components plus 100 ng/mL human FGF-10 (Thermo Fisher Scientific, cat. 100-26), 500 nM SB-431542 (Selleckchem, cat. S1067), and gastrin (Tocris, cat. 3006).
[…]

[1] = second compound 0.0316 µM, first compound 0.0316 µM
[2] = second compound 0.0316 µM, first compound 0.1 µM
[3] = second compound 0.0316 µM, first compound 0.316 µM
[4] = second compound 0.0316 µM, first compound 1 µM
[5] = second compound 0.0316 µM, first compound 3.16 µM
[6] = second compound 0.0316 µM, first compound 10 µM
[7] = second compound 0.1 µM, first compound 0.0316 µM
[8] = second compound 0.1 µM, first compound 0.1 µM
[9] = second compound 0.1 µM, first compound 0.316 µM
[10] = second compound 0.1 µM, first compound 1 µM
[11] = second compound 0.1 µM, first compound 3.16 µM
[12] = second compound 0.1 µM, first compound 10 µM
[13] = second compound 0.316 µM, first compound 0.0316 µM
[14] = second compound 0.316 µM, first compound 0.1 µM
[15] = second compound 0.316 µM, first compound 0.316 µM
[16] = second compound 0.316 µM, first compound 1 µM
[17] = second compound 0.316 µM, first compound 3.16 µM
[18] = second compound 0.316 µM, first compound 10 µM
[19] = second compound 1 µM, first compound 0.0316 µM
[20] = second compound 1 µM, first compound 0.1 µM
[21] = second compound 1 µM, first compound 0.316 µM
[22] = second compound 1 µM, first compound 1 µM
[23] = second compound 1 µM, first compound 3.16 µM
[24] = second compound 1 µM, first compound 10 µM
[25] = second compound 3.16 µM, first compound 0.0316 µM
[26] = second compound 3.16 µM, first compound 0.1 µM
[27] = second compound 3.16 µM, first compound 0.316 µM
[28] = second compound 3.16 µM, first compound 1 µM
[29] = second compound 3.16 µM, first compound 3.16 µM
[30] = second compound 3.16 µM, first compound 10 µM
[31] = second compound 10 µM, first compound 0.0316 µM
[32] = second compound 10 µM, first compound 0.1 µM
[33] = second compound 10 µM, first compound 0.316 µM
[34] = second compound 10 µM, first compound 1 µM
[35] = second compound 10 µM, first compound 3.16 µM
[36] = second compound 10 µM, first compound 10 µM
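Further: spheroids exposed to agents for 7 days before readout.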
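Wherever viability, T/C is given: percent viability relative to DMSO vehicle control taken as 100%.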

COc1ncnc(C2CC2)c1-c1ncc2cnn(Cc3ccc(-c4nc(C(F)(F)F)cn4C(C)C)cc3)c2n1 + Cc1[nH]c2ccc(F)cc2c1-c1nc2c3cccnc3c3ncccc3c2[nH]1
> 10000 nM: IC50 (second compound 0.0316 µM) | IC50 (second compound 0.1 µM) | IC50 (second compound 0.316 µM) | IC50 (second compound 1 µM) | IC50 (second compound 3.16 µM)
32 nM: IC50 (second compound 10 µM)
inactive: viability, T/C [1] 99.1% | viability, T/C [2] 113% | viability, T/C [3] 101% | viability, T/C [4] 97.9% | viability, T/C [5] 113% | viability, T/C [6] 109% | viability, T/C [7] 96.6% | viability, T/C [8] 115% | viability, T/C [9] 99.8% | viability, T/C [10] 111% | viability, T/C [11] 108% | viability, T/C [12] 115% | viability, T/C [13] 105% | viability, T/C [14] 119% | viability, T/C [15] 101% | viability, T/C [16] 94.2% | viability, T/C [17] 110% | viability, T/C [18] 129% | viability, T/C [19] 118% | viability, T/C [20] 105% | viability, T/C [21] 117% | viability, T/C [22] 98.9% | viability, T/C [23] 108% | viability, T/C [24] 118% | viability, T/C [25] 63.5% | viability, T/C [26] 73.5% | viability, T/C [27] 56.4% | viability, T/C [28] 79.9% | viability, T/C [29] 84.8% | viability, T/C [30] 68.7% | viability, T/C [31] 50.2% | viability, T/C [32] 26.4% | viability, T/C [33] 27.8% | viability, T/C [34] 40.9% | viability, T/C [35] 15.1% | viability, T/C [36] 18.8%

CC(=O)O[C@H]1C(=O)[C@@]2(C)[C@H]([C@H](OC(=O)c3ccccc3)[C@]3(O)C[C@H](OC(=O)[C@H](O)[C@@H](NC(=O)c4ccccc4)c4ccccc4)C(C)=C1C3(C)C)[C@]1(OC(C)=O)CO[C@@H]1C[C@@H]2O + Cc1cnc(CNC(=O)c2c(=O)c3ccc(N4CCCN(C)CC4)nc3n3c2sc2ccccc23)cn1
inactive: viability, T/C [1] 13.8% | viability, T/C [7] 16.6% | viability, T/C [8] 15.9% | viability, T/C [9] 13.2% | viability, T/C [10] 13.6% | viability, T/C [11] 14.1% | viability, T/C [12] 14.8% | viability, T/C [13] 17.9% | viability, T/C [14] 20.6% | viability, T/C [15] 19.2% | viability, T/C [16] 19.6% | viability, T/C [17] 16% | viability, T/C [18] 20.2% | viability, T/C [19] 15.3% | viability, T/C [20] 20.4% | viability, T/C [21] 17.4% | viability, T/C [22] 17% | viability, T/C [23] 17.5% | viability, T/C [24] 16.5% | viability, T/C [25] 17.3% | viability, T/C [26] 16.9% | viability, T/C [27] 14.7% | viability, T/C [28] 14.4% | viability, T/C [29] 12.7% | viability, T/C [30] 13.1%
active: viability, T/C [2] 7.95% | viability, T/C [3] 6.83% | viability, T/C [4] 5.58% | viability, T/C [5] 6.63% | viability, T/C [6] 7.13% | viability, T/C [31] 0.11% | viability, T/C [32] 0.16% | viability, T/C [33] 0.15% | viability, T/C [34] 0.14% | viability, T/C [35] 0.15% | viability, T/C [36] 0.15%
< 31.6 nM: IC50 (second compound 0.0316 µM) | IC50 (second compound 0.1 µM) | IC50 (second compound 0.316 µM) | IC50 (second compound 1 µM) | IC50 (second compound 3.16 µM) | IC50 (second compound 10 µM)
